# Values of other authors, collected in US7383946B2 (priority 2004, dated 2008).
structure (smiles),measurement,value
"[O][Cl+][O-] [Chlorine dioxide, chlorine dioxide]",concentration at which chlorine dioxide is stable in water and aqueous solutions,approximately 10 g/L
